Measured values: publication PMC8837603, “Lapcin, a potent dual topoisomerase I/II inhibitor discovered by soil metagenome guided total chemical synthesis” (Nature Communications, 2022)

How the values were obtained:
[1] = system: Wheat germ Topoisomerase I; experiment: DNA intercalator assay / enzyme concentration dependence, Topo I; type: biochemical; settings: unlike known DNA intercalators; supercoil pBR322, 30 min, 37 °C; two independent times
Description: DNA intercalator assay: A commercial DNA unwinding assay kit (Inspiralis, UK) was used in this study with a slight modification. Ethidium bromide was used as intercalator positive control. The assay contains two steps: the first step is used to determine the minimum concentration of compounds that will inhibit the enzyme activity; the second step is used to determine whether compounds act as intercalator or inhibitor. Ethidium bromide was used as the intercalator positive control and supercoil pBR322 was used as the substrate. The assay mixture was set up on the ice. Briefly, the master mixture was prepared by adding 3 µL of […] wheat germ topoisomerase I assay buffer, 0.5 µL of 1 µg/µL supercoil pBR322, 1.5 uL serial diluted compounds (dissolved in DMSO). H2O was added to a final volume of 29 µL. Finally, 1 µL of 2 U/µL Wheat germ Topoisomerase I was added to the reaction mixture. The reaction was incubated for 30 minutes at 37℃. The reaction was stopped by added 20 µL of H2O, and 50 µL of butanol (water-saturated). The mixture was vortexed vigorously and centrifuged for 1 minute. The lower, aqueous layer was removed and added into a new tubes containing 50 µL STEB buffer and 40 µL of Chloroform/isoamyl alcohol (v:v, 24:1). The mixture was vortexed vigorously for 10 secs and centrifuge for 2 minutes. […]

U2OS (Bone) cells = experiment: cells; type: cell-based, human
Experimental: (§1) An MTT (2-(4,5-dimethylthiazol-2-yl)−2,5-diphenyltetrazolium bromide) assay was used to determine the cytotoxicity of lapcin towards diverse cancer cell lines. Lapcin was dissolved in DMSO to make a 3.2 mg/mL working solution. For each cancer line detailed in Supplementary Table 5, cells at 80-90% confluency were counted and seeded in 96-well, flat bottom microplates and incubated at 37 °C with a 5% CO2 atmosphere. Outer wells were unused to avoid edge effects. After adhering for 24 h, the medium was sterilely aspirated and replaced with 100 µL of fresh medium containing lapcin or a control compound serially diluted at concentrations ranging from 8,000 to 0.00382 ng/mL. After 48 h (37 °C, 5% CO2), the medium was carefully removed and 110 µL of freshly prepared MTT solution (10 µL of 5 mg/mL MTT in PBS (pH 7.4) premixed with 100 µL of complete medium) was added to each well. After 3 h at 37 °C with 5% CO2, 100 µL of solubilization solution (40% DMF, 16% SDS and 2% acetic acid in H2O) was added to each well and precipitated formazan crystals were allowed to dissolve for 4 h. The absorbance of each well was then measured at 570 nm using a Tecan microplate reader.

NCI-H226 cells = experiment: cells; type: cell-based, human
Experimental: as §1

HT29 cells = experiment: cells; type: cell-based, human; settings: colon cancer; MTT, 48 h, 37 °C; DMEM + 10% FBS; 2,500 cells/well; absorbance 570 nm; n = 3 biologically independent
Experimental: as §1

HCT116 cells = experiment: cells; type: cell-based, human; settings: colon cancer; MTT, 48 h, 37 °C; DMEM + 10% FBS; 10,000 cells/well; absorbance 570 nm; n = 3 biologically independent
Experimental: as §1

HCC1806 cells = experiment: cells; type: cell-based, human; settings: breast cancer; MTT, 48 h, 37 °C; RPMI-1640 + 10% FBS; 2,500 cells/well; absorbance 570 nm; n = 3 biologically independent
Experimental: as §1

SW480 cells = experiment: cells; type: cell-based, human; settings: colon cancer; MTT, 48 h, 37 °C; DMEM + 10% FBS; 10,000 cells/well; absorbance 570 nm; n = 3 biologically independent
Experimental: as §1

Colo205 cells = experiment: cells; type: cell-based, human; settings: colon cancer; MTT, 48 h, 37 °C; RPMI-1640 + 10% FBS; 2,500 cells/well; absorbance 570 nm; n = 3 biologically independent
Experimental: as §1

MCF 7 cells = experiment: cells; type: cell-based, human; settings: breast cancer; MTT, 48 h, 37 °C; DMEM + 10% FBS; 8,000 cells/well; absorbance 570 nm; n = 3 biologically independent
Experimental: as §1

HEK293 cells = experiment: cells; type: cell-based, human; settings: normal cell; MTT, 48 h, 37 °C; DMEM + 10% FBS; 5, 000 cells/well; absorbance 570 nm; n = 3 biologically independent
Experimental: as §1

NCI-H1299 cells = experiment: cells; type: cell-based, human; settings: lung cancer; MTT, 48 h, 37 °C; RPMI-1640 + 10% FBS; 2,500 cells/well; absorbance 570 nm; n = 3 biologically independent
Experimental: as §1

Hela (Cervical) cells = experiment: cells; type: cell-based, human; settings: cervical cancer; MTT, 48 h, 37 °C; DMEM + 10% FBS; 2,500 cells/well; absorbance 570 nm; n = 3 biologically independent
Experimental: as §1

Topo II = experiment: Enzyme concentration dependence, Topo II activity assay; type: biochemical; settings: unlike known DNA intercalators; Supplementary Fig. 38

With `CCCCCCCCCCCC(O)CC(=O)N[C@@H](C)C(=O)N[C@@H](CO)C(=O)N[C@@H](C)C(=O)Nc1ccc(-c2nc(-c3nc(C(=O)N[C@@H](CC(N)=O)C(=O)Nc4ccc(C(=O)Nc5ccc(C(=O)Nc6ccc(C(=O)O)cc6)c(O)c5OC(C)C)cc4)cs3)cs2)cc1` (stereo partly drawn) [Lapcin, 4-(4-(4-((2S)-4-amino-2-(2'-(4-((2S)-2-((2S)-3-hydroxy-2-((2S)-2-(3-hydroxytetradecanamido)propanamido)propanamido)propanamido)phenyl)-[2,4'-bithiazole]-4-carboxamido)-4-oxobutanamido)benzamido)-2-hydroxy-3-isopropoxybenzamido)benzoic acid] the “dependence of activity on enzyme concentration, Topo I” value [1] was “strong dependence on enzyme concentration”, the IC50 (U2OS (Bone) cells; bone cancer, MTT, 48 h, 37 °C, DMEM + 10% FBS + NEAA, 2,500 cells/well, absorbance 570 nm, n = 3 biologically independent) was 1.29 nM and the “activity against U2OS in words” value (U2OS (Bone) cells; human bone osteosarcoma epithelial cell line U2OS) was “retained potent activity”. The “potency vs etoposide, NCI-H226” value (NCI-H226 cells; compared with etoposide) was “essentially equipotent”, the IC50 (NCI-H226 cells; lung cancer, MTT, 48 h, 37 °C, RPMI-1640 + 10% FBS, 10,000 cells/well, absorbance 570 nm, n = 3 biologically independent) was 241 nM and the IC50 (HT29 cells) was 0.516 nM. It also gave an IC50 (HCT116 cells) of 923 nM, an IC50 (HCC1806 cells) of 212 nM and an IC50 (SW480 cells) of 37.2 nM. The IC50 (Colo205 cells) was 0.504 nM, the IC50 (MCF 7 cells) was 35.1 nM and the IC50 (HEK293 cells) was 48.4 nM. The IC50 (NCI-H1299 cells) was 0.0168 nM, the IC50 (Hela (Cervical) cells) was 0.986 nM and the “dependence of activity on enzyme concentration, Topo II” value (Topo II) was “strong dependence on enzyme concentration”.
